# Source: patent US20060282906A1, “Non-transgenic rodent model of Alzheimer's disease” (priority 2005, published 2006)
# Columns and labels:
# [1] = test system: Male Wistar rats; test: Montoya staircase test; assay type: in vivo, rat; details: mean±SEM
# Protocol: (§1) Male Wistar rats (250 to 300 grams; Charles River, Montreal, Quebec) were divided into 4 groups: intracerebroventricular injections of Aβ(25-35) (BACHEM, Torrance, Calif.); endothelin injections into the right striatum; both Aβ(25-35) and striatal endothelin injections; and sham procedures. The Aβ(25-35) fragment was used to reduce the possibility of rapid coagulation and to allow diffusion of the peptide into the brain.
# (§2) All rats were anesthetized using 40 mg/kg of pentobarbital (Somnotol; MTC Pharmaceuticals, Cambridge, Ontario) intraperitoneally. Body temperature was maintained at 37° C. Aβ(25-35) (50 nmol in 10 μL of saline) was injected bilaterally into the lateral ventricles. Aβ(25-35) was prepared according to established methods (Sigurdsson, et al. (1997) supra). Aβ(25-35) (50 nmol in 10 μL of saline at a rate of 1 μL/minute) was injected bilaterally into the lateral ventricles via a stainless-steel cannula (23-gauge; anterior/posterior −0.8, medial/lateral ±1.4, and dorsal/ventral −4.0 below dura). Two endothelin injections (6 pmol in 3 μL of saline), 1 mm apart, were made into the right striatum (Sigurdsson, et al. (1997) supra). Sham procedures involved all the surgical steps without injections of Aβ(25-35) or endothelin. After wound suture, all rats received […] of buprenorphine intramuscularly and were allowed to recover from surgery for 7 days.
# For training (n=10 for each group), rats were placed into the Montoya staircase apparatus (Montoya, et al. (1991) supra) at the same time every day for 8 days (days −8 through −1) and were allowed to perform the test for 20 minutes. Rats were food-deprived for 1 day (day −9) before testing, as well as on day −8. On days −7 though −1, rats were fed 10 grams of their normal chow so that they maintained their body weight at ˜85%. Three NOYES LAB ANIMAL PRECISION FOOD PELLETS™ (Research Diets, Inc., New Brunswick, N.J.) were placed in each of the 14 wells (7 on each side). Pellets eaten were recorded from each well. Re-testing trials, which were performed 7 days after the surgical procedures (day 0), were performed for 8 days in the same way as the training trials (days 8 through 15).
# Digital photographs were taken using a light microscope (Leitz Diaplan). An investigator was blinded to the identification of the rat sections while analysis was being performed. […] Also, relative optical density measurements and numbers of stained cells or accumulations were measured in entire brain areas for quantitative analysis and statistically analyzed with ANOVA and Tukey post hoc test with a significance level of P<0.05. […] The staircase data are expressed as the mean±SEM. […] Data are expressed as mean±SEM. […]
# [2] = test system: Male Wistar rats; test: Congo Red histochemistry of rat brain sections; assay type: in vivo; details: Aβ: lesions in fornix, anterior hippocampus, CA1 hippocampus; endothelin: infarct
# Protocol: as §1
# as §2, with “days. […]” for “days.”
# [3] = test system: Male Wistar rats; test: Quantitative immunohistochemistry: relative optical density and numbers of stained cells or accumulations; assay type: in vivo, rat; details: for APP Accumulation / GFAP Intensity / OX6 Intensity: vehicle (not in brackets), mean ± SEM, n = 4
# Protocol: (§3) All rats were anesthetized using 40 mg/kg of pentobarbital (Somnotol; MTC Pharmaceuticals, Cambridge, Ontario) intraperitoneally. Body temperature was maintained at 37° C. Aβ(25-35) (50 nmol in 10 μL of saline) was injected bilaterally into the lateral ventricles. Aβ(25-35) was prepared according to established methods (Sigurdsson, et al. (1997) supra). Aβ(25-35) (50 nmol in 10 μL of saline at a rate of 1 μL/minute) was injected bilaterally into the lateral ventricles via a stainless-steel cannula (23-gauge; anterior/posterior −0.8, medial/lateral ±1.4, and dorsal/ventral −4.0 below dura). Two endothelin injections (6 pmol in 3 μL of saline), 1 mm apart, were made into the right striatum (Sigurdsson, et al. (1997) supra). Sham procedures involved all the surgical steps without injections of Aβ(25-35) or endothelin. After wound suture, all rats received 40 mg/kg of buprenorphine intramuscularly and were allowed to recover from surgery for 7 days.
# (§4) Twenty-one days after surgery, all animals were euthanized via pentobarbital overdose and perfused transaortically first with saline followed by 4% formaldehyde (pH 7.4). The brains were removed and cryoprotected in 30% sucrose for 36 hours at 4° C. Coronal sections (30 pm) were cut using a cryostat.
# (§5) Free-floating sections from rat brains (n=5 for each group) were treated with 0.03% hydrogen peroxide and blocked with 3 mL of horse or rabbit serum (VECTASTAIN® Elite, Vector Laboratories, Burlingame, Calif.). The following primary antibodies were diluted in filtered phosphate-buffered saline: APPa4 mouse monoclonal (Chemicon International Inc, Temecula, Calif.; 1:1000), GFAP mouse monoclonal (Sigma-Aldrich, St Louis, Mo.; 1:1000), OX-6 mouse monoclonal (Serotec, Inc., Raleigh, N.C.; 1:1000), Tau-2 mouse monoclonal (Sigma-Aldrich, St Louis, Mo.; 1:10000), NFκB(p65) goat polyclonal (Santa Cruz Biotechnologies, Santa Cruz, Calif.; 1:1000), IL-1β goat polyclonal (Santa Cruz Biotechnologies, Santa Cruz, Calif.; 1:1000), and TNF-α-M18 goat polyclonal (Santa Cruz Biotechnologies, Santa Cruz, Calif.; 1:1000). APP-, Tau-2-, GFAP-, and OX-6-stained sections were incubated with 3 mL of horse biotinylated anti-mouse secondary antibody and horse serum. NFκB(p65), IL-1β, and TNF-α-stained sections were incubated with 3 mL of biotinylated rabbit anti-goat secondary antibody and rabbit serum. Sections were then incubated in 3 mL of avidin-biotin complex followed by 0.05% diaminobenzidine. Sections were washed, air-dried, cleared in xylene, and cover-slipped. Brains to be compared were processed at the same time using the same solutions to reduce variability in immunostaining caused by separate processing.
# (§6) Digital photographs were taken using a light microscope (Leitz Diaplan). An investigator was blinded to the identification of the rat sections while analysis was being performed. All immunohistochemical data that were compared was processed at the same time to reduce any variation caused by differences of intensity. A grading scale was based on both observable size and intensity of staining (n=5 for each group). Also, relative optical density measurements and numbers of stained cells or accumulations were measured in entire brain areas for quantitative analysis and statistically analyzed with ANOVA and Tukey post hoc test with a significance level of P<0.05.
# [4] = test system: Male Wistar rats; test: Immunohistochemistry of rat brain sections, grading scale of staining size and intensity; assay type: in vivo; set-up: key to NKκB(p65) immunostaining signal / COX-2 immunostaining signal / GFAP immunostaining signal / OX-6 immunostaining signal / APP immunostaining signal / Tau-2 immunostaining signal / TNFα immunostaining signal / Cas-3 immunostaining signal: n.s.: no positive staining; +: moderate immunostaining signal; ++: strong immunostaining signal; +++: strongest immunostaining signal
# Protocol: as §3, §4, §5, §6
smiles,measurement,setting,value
CC[C@H](C)[C@H](NC(=O)[C@H](CC(=O)O)NC(=O)[C@H](CC(C)C)NC(=O)[C@H](Cc1c[nH]cn1)NC(=O)[C@@H]1CSSC[C@H](N)C(=O)N[C@@H](CO)C(=O)N[C@H]2CSSC[C@H](NC(=O)[C@H](CCC(=O)O)NC(=O)[C@H](CCCCN)NC(=O)[C@H](CC(=O)O)NC(=O)[C@H](CCSC)NC(=O)[C@H](CC(C)C)NC(=O)[C@H](CO)NC(=O)[C@H](CO)NC2=O)C(=O)N[C@@H](C(C)C)C(=O)N[C@@H](Cc2ccc(O)cc2)C(=O)N[C@@H](Cc2ccccc2)C(=O)N1)C(=O)N[C@H](C(=O)N[C@@H](Cc1c[nH]c2ccccc12)C(=O)O)[C@@H](C)CC [Endothelin],"Staircase test performance, contralateral paw",[1]; day 8 (first day of re-testing),66±15 % of pretreatment
same,"Staircase test performance, ipsilateral paw",[1]; during the post-treatment phase,143±18 % of pretreatment
same,Congo Red staining,[2],stained positively for Congo Red
same,average numbers of OX-6-stained microglia,[3]; CA1 of the hippocampus,4.8±0.9
same,Average intensity measurements for GFAP,[3]; Hippocampus,152.9±11.0
same,APP Accumulation,[3]; Left Cortex,7.4 ± 1.4
same,GFAP Intensity,[3]; Left Hippocampus,152.1 ± 4.1
same,OX6 Intensity,[3]; Left Hippocampus,104.2 ± 3.5
same,APP Accumulation,[3]; Right Cortex,13.8 ± 1.9
same,GFAP Intensity,[3]; Right Hippocampus,166.0 ± 3.8
same,OX6 Intensity,[3]; Right Hippocampus,116.2 ± 2.9
same,APP immunostaining signal,[4]; Corpus Callosum,n.s.
same,COX-2 immunostaining signal,[4]; Corpus Callosum,n.s.
same,GFAP immunostaining signal,[4]; Corpus Callosum,+
same,NKκB(p65) immunostaining signal,[4]; Corpus Callosum,n.s.
same,OX-6 immunostaining signal,[4]; Corpus Callosum,n.s.
same,TNFα immunostaining signal,[4]; Corpus Callosum,n.s.
same,Tau-2 immunostaining signal,[4]; Corpus Callosum,n.s.
same,APP immunostaining signal,[4]; Cortex,n.s.
same,COX-2 immunostaining signal,[4]; Cortex,n.s.
same,GFAP immunostaining signal,[4]; Cortex,+
same,NKκB(p65) immunostaining signal,[4]; Cortex,n.s.
same,OX-6 immunostaining signal,[4]; Cortex,n.s.
same,TNFα immunostaining signal,[4]; Cortex,n.s.
same,Tau-2 immunostaining signal,[4]; Cortex,n.s.
same,APP immunostaining signal,[4]; Hippocampus,n.s.
same,COX-2 immunostaining signal,[4]; Hippocampus,n.s.
same,GFAP immunostaining signal,[4]; Hippocampus,+
same,NKκB(p65) immunostaining signal,[4]; Hippocampus,n.s.
same,OX-6 immunostaining signal,[4]; Hippocampus,n.s.
same,Tau-2 immunostaining signal,[4]; Hippocampus,n.s.
same,APP immunostaining signal,[4]; Hypothalamus,n.s.
same,NKκB(p65) immunostaining signal,[4]; Hypothalamus,n.s.
same,TNFα immunostaining signal,[4]; Hypothalamus,n.s.
same,APP immunostaining signal,[4]; Striatum (right),+
same,COX-2 immunostaining signal,[4]; Striatum (right),+
same,Cas-3 immunostaining signal,[4]; Striatum (right),+
same,GFAP immunostaining signal,[4]; Striatum (right),++
same,NKκB(p65) immunostaining signal,[4]; Striatum (right),+
same,OX-6 immunostaining signal,[4]; Striatum (right),++
same,TNFα immunostaining signal,[4]; Striatum (right),+
same,OX-6 immunostaining signal,[4]; Thalamus (right),+
same,TNFα immunostaining signal,[4]; Thalamus (right),+
same,Tau-2 immunostaining,[4]; region of ischemic damage (right striatum),Increases
same,IL-1β immunostaining,"[4]; region of the infarct, punctate appearance",Increases
